Experimental data: patent publication US20230398130A1, “METHODS AND COMPOSITIONS FOR DIFFERENTIATING STEM CELLS” (Massachusetts Institute of Technology, priority 2020, published 2023)

Key:
ISC-enriched organoids [1] = test: Primary screen, 384-well 2.5-D organoid differentiation (ENR+CD, 6 days): carbachol-induced lysozyme secretion (LYZ.S); type: cell-based, murine; settings: for Dose.FC.LYZ.S: FC vs plate median; for Z.LYZ.S: standard z score; for SSMD.LYZ.S: strictly standardized mean difference
Description: (§1) High-throughput screening.

ISC-enriched organoids [2] = test: Primary screen, 384-well 2.5-D organoid differentiation (ENR+CD, 6 days): basal lysozyme secretion (LYZ.NS); type: cell-based, murine; settings: for Dose.FC.LYZ.NS: FC vs plate median; for Z.LYZ.NS: standard z score; for SSMD.LYZ.NS: strictly standardized mean difference
Description: as §1

ISC-enriched organoids [3] = test: Primary screen, 384-well 2.5-D organoid differentiation (ENR+CD, 6 days, Target Selective Inhibitor Library, vs whole-plate median): ATP (CellTiter-Glo 3D, CTG); settings: for Dose.FC.CTG: FC vs plate median; for SSMD.CTG: strictly standardized mean difference
[4] = Dose 0.08 uM, primary screen, standard z score
[5] = Dose 0.40 uM, primary screen, standard z score
[6] = Dose 2.00 uM, primary screen, standard z score
[7] = Dose 10.00 uM, primary screen, standard z score
[8] = primary screen, 1st of the 4 dose lines of the treatment (dose not given)
[9] = primary screen, 2nd of the 4 dose lines of the treatment (dose not given)
[10] = primary screen, 3rd of the 4 dose lines of the treatment (dose not given)
[11] = primary screen, 4th of the 4 dose lines of the treatment (dose not given)

SMILES	Dose.FC.LYZ.S (ISC-enriched organoids [1]; Dose 0.08 uM, primary screen) [log 2 fold change]	Dose.FC.LYZ.S (ISC-enriched organoids [1]; Dose 0.40 uM, primary screen) [log 2 fold change]	Dose.FC.LYZ.S (ISC-enriched organoids [1]; Dose 2.00 uM, primary screen) [log 2 fold change]	Dose.FC.LYZ.S (ISC-enriched organoids [1]; Dose 10.00 uM, primary screen) [log 2 fold change]	Dose.FC.LYZ.NS (ISC-enriched organoids [2]; Dose 0.08 uM, primary screen) [log 2 fold change]	Z.LYZ.NS (ISC-enriched organoids [2]; Dose 0.08 uM, primary screen)	Dose.FC.LYZ.NS (ISC-enriched organoids [2]; Dose 0.40 uM, primary screen) [log 2 fold change]	Z.LYZ.NS (ISC-enriched organoids [2]; Dose 0.40 uM, primary screen)	Dose.FC.LYZ.NS (ISC-enriched organoids [2]; Dose 2.00 uM, primary screen) [log 2 fold change]	Z.LYZ.NS (ISC-enriched organoids [2]; Dose 2.00 uM, primary screen)	Dose.FC.LYZ.NS (ISC-enriched organoids [2]; Dose 10.00 uM, primary screen) [log 2 fold change]	Z.LYZ.NS (ISC-enriched organoids [2]; Dose 10.00 uM, primary screen)	Dose.FC.CTG (ISC-enriched organoids [3]; Dose 0.08 uM, primary screen) [log 2 fold change]	Z.CTG (ISC-enriched organoids [3]; [4])	Dose.FC.CTG (ISC-enriched organoids [3]; Dose 0.40 uM, primary screen) [log 2 fold change]	Z.CTG (ISC-enriched organoids [3]; [5])	Dose.FC.CTG (ISC-enriched organoids [3]; Dose 2.00 uM, primary screen) [log 2 fold change]	Z.CTG (ISC-enriched organoids [3]; [6])	Dose.FC.CTG (ISC-enriched organoids [3]; Dose 10.00 uM, primary screen) [log 2 fold change]	Z.CTG (ISC-enriched organoids [3]; [7])	also measured
Cc1ccc(S(=O)(=O)NC(=O)NN2CC3CCCC3C2)cc1 (stereo not drawn) [Gliclazide]																					Dose.FC.LYZ.S (ISC-enriched organoids [1]; Dose 10.00 uM, ENR+CD, 6 days): −0.060 log 2 fold change; Dose.FC.LYZ.NS (ISC-enriched organoids [2]; Dose 10.00 uM, ENR+CD, 6 days): −0.035 log 2 fold change; Z.CTG (ISC-enriched organoids [3]; Dose 0.08 uM, standard z score of FC): 0.386; Z.CTG (ISC-enriched organoids [3]; Dose 0.40 uM, standard z score of FC): 0.128; Z.CTG (ISC-enriched organoids [3]; Dose 2.00 uM, standard z score of FC): 0.020; Dose.FC.CTG (ISC-enriched organoids [3]; Dose 10.00 uM, ENR+CD, 6 days): −0.092 log 2 fold change; Z.CTG (ISC-enriched organoids [3]; Dose 10.00 uM, standard z score of FC): −0.219
COc1ccc2c(c1)c(C1=C(c3c[nH]c4ccccc34)C(=O)NC1=O)cn2CCCN(C)C [Go 6983]	0.021	0.007	−0.010	−0.073	−0.005	−0.046	0.013	0.114	0.091	0.791	−0.092	−0.798	0.021	0.050	−0.036	−0.085	0.058	0.138	−0.181	−0.433	
Cl.Cl.O=S(=O)(NCCNC/C=C/c1ccc(Br)cc1)c1cccc2cnccc12 [H 89 2HCl]	0.118	0.148	0.087	0.000	0.140	1.223	0.080	0.695	0.086	0.747	0.132	1.151	0.350	0.836	0.398	0.950	0.421	1.005	0.385	0.919	Z.LYZ.S (ISC-enriched organoids [1]; [8]): 0.764; Z.LYZ.S (ISC-enriched organoids [1]; [9]): 0.955; Z.LYZ.S (ISC-enriched organoids [1]; [10]): 0.565; Z.LYZ.S (ISC-enriched organoids [1]; [11]): −0.001; SSMD.LYZ.S (ISC-enriched organoids [1]; [8]): 0.529; SSMD.LYZ.S (ISC-enriched organoids [1]; [9]): 0.703; SSMD.LYZ.S (ISC-enriched organoids [1]; [10]): 0.329; SSMD.LYZ.S (ISC-enriched organoids [1]; [11]): −0.001; SSMD.LYZ.NS (ISC-enriched organoids [2]; [8]): 0.995; SSMD.LYZ.NS (ISC-enriched organoids [2]; [9]): 0.816; SSMD.LYZ.NS (ISC-enriched organoids [2]; [10]): 0.521; SSMD.LYZ.NS (ISC-enriched organoids [2]; [11]): 0.374; SSMD.CTG (ISC-enriched organoids [3]; [8]): 1.039; SSMD.CTG (ISC-enriched organoids [3]; [9]): 0.952; SSMD.CTG (ISC-enriched organoids [3]; [10]): 0.830; SSMD.CTG (ISC-enriched organoids [3]; [11]): 1.211
CC(C)c1ccc(NC(=O)Cn2cnc3c2c(=O)n(C)c(=O)n3C)cc1 [HC-030031]	0.090	0.097	−0.035	0.077	0.063	0.547	0.033	0.291	−0.007	−0.057	−0.047	−0.411	0.082	0.195	0.191	0.457	−0.008	−0.019	−0.241	−0.575	Z.LYZ.S (ISC-enriched organoids [1]; [8]): 0.584; Z.LYZ.S (ISC-enriched organoids [1]; [9]): 0.627; Z.LYZ.S (ISC-enriched organoids [1]; [10]): −0.225; Z.LYZ.S (ISC-enriched organoids [1]; [11]): 0.499; SSMD.LYZ.S (ISC-enriched organoids [1]; [8]): 0.499; SSMD.LYZ.S (ISC-enriched organoids [1]; [9]): 0.539; SSMD.LYZ.S (ISC-enriched organoids [1]; [10]): −0.200; SSMD.LYZ.S (ISC-enriched organoids [1]; [11]): 0.322; SSMD.LYZ.NS (ISC-enriched organoids [2]; [8]): 0.506; SSMD.LYZ.NS (ISC-enriched organoids [2]; [9]): 0.276; SSMD.LYZ.NS (ISC-enriched organoids [2]; [10]): −0.048; SSMD.LYZ.NS (ISC-enriched organoids [2]; [11]): −0.383; SSMD.CTG (ISC-enriched organoids [3]; [8]): 0.200; SSMD.CTG (ISC-enriched organoids [3]; [9]): 0.606; SSMD.CTG (ISC-enriched organoids [3]; [10]): −0.025; SSMD.CTG (ISC-enriched organoids [3]; [11]): −0.715
O=C1[C@H](Cc2ccc(O)cc2)N2C(=O)CCN(C(=O)NCc3ccccc3)[C@H]2CN1Cc1cccc2ccccc12 [ICG-001]	0.163	0.204	0.017	−0.124	0.037	0.324	0.037	0.321	0.045	0.396	−0.125	−1.093	0.104	0.249	0.104	0.248	0.143	0.343	−0.416	−0.993	Z.LYZ.S (ISC-enriched organoids [1]; [8]): 1.054; Z.LYZ.S (ISC-enriched organoids [1]; [9]): 1.318; Z.LYZ.S (ISC-enriched organoids [1]; [10]): 0.109; Z.LYZ.S (ISC-enriched organoids [1]; [11]): −0.802; SSMD.LYZ.S (ISC-enriched organoids [1]; [8]): 0.711; SSMD.LYZ.S (ISC-enriched organoids [1]; [9]): 0.796; SSMD.LYZ.S (ISC-enriched organoids [1]; [10]): 0.122; SSMD.LYZ.S (ISC-enriched organoids [1]; [11]): −0.824; SSMD.LYZ.NS (ISC-enriched organoids [2]; [8]): 0.280; SSMD.LYZ.NS (ISC-enriched organoids [2]; [9]): 0.339; SSMD.LYZ.NS (ISC-enriched organoids [2]; [10]): 0.413; SSMD.LYZ.NS (ISC-enriched organoids [2]; [11]): −1.162; SSMD.CTG (ISC-enriched organoids [3]; [8]): 0.298; SSMD.CTG (ISC-enriched organoids [3]; [9]): 0.360; SSMD.CTG (ISC-enriched organoids [3]; [10]): 0.530; SSMD.CTG (ISC-enriched organoids [3]; [11]): −0.731
